These results are taken from patent US5326766A, “4-(2-(4-(2-pyridinyloxy)phenyl)ethoxy)quinazoline and analogues thereof” (priority 1992, dated 1994).

Assay [1] has as its system German cockroach (Blattella germanicus). The assay can be described thus: whole plant or invertebrate. Particulars: 240 h, ten days, read-out: GECR activity (rated on live and dead insects). In kind it is in vivo. On the procedure: (§1) The compounds identified in Table I were tested for miticidal and insecticidal activity against eight species. The following abbreviations are used in the Table III:
GECR refers to German cockroach
(§2) In conducting evaluations of insecticidal activity, each test compound was formulated as a 400 ppm solution, and this solution was then diluted with water to give lesser concentrations. The 400 ppm solution was prepared by combining 19.2 mL of 0.05% solution of Tween 20 (polyoxyethylene (20) sorbitan monolaurate) in water with a solution of 8 mg of the compound in 0.8 mL of acetone/EtOH (9/1).
Activity against German cockroach (Blattella germanicus) was evaluated as follows. 8 mL of alfalfa based green insect diet material was dispensed into a one ounce diet cup. The cups were then sprayed with formulated material through a flat-fan nozzle. The test was run using concentrations of 400 ppm and 50 ppm. Treated cups were air dried for 24 hours and infested with five late third or early fourth instar German cockroaches. The cups were capped and held for ten days in an environmental growth chamber at a temperature of […]. Activity was then rated based on the total number of live and dead insects.

Assay [2] relates to Pyricularia oryzae (rice blast). The assay can be described thus: whole plant or invertebrate. It counts as in vivo. The following applies: Pyricularia oryzae, foliar, read-out: PYRIOR disease control, host rice; foliar spray; 400 ppm (+++: 100 ppm).
For assay [3], the system named is two spotted spider mite (Tetranychus urticae). The assay can be described thus: whole plant or invertebrate. The following applies: 72 h; for mortality at 50 ppm: read-out: TSSM activity (percent based on mites present in plants sprayed with solvent alone), 50 ppm, squash plants, three days after treatment; for mortality at 400 ppm: read-out: TSSM activity (percent based on mites present in plants sprayed with solvent alone), 400 ppm, squash plants, three days after treatment.

In assay [4] the test system is Southern corn rootworm (Diabrotica undecimpuctata howardi Barber). The experiment in a line: whole plant or invertebrate. In kind it is in vivo. The following applies: 400 ppm, soil concentration of 24 ppm, 3-4 days, read-out: SCRW mortality. As to the method: as §1
SCRW refers to southern corn rootworm
as §2
Activity on Southern corn rootworm (Diabrotica undecimpuctata howardi Barber) was evaluated by adding one mL of test solution containing a predetermined concentration of test compound to a cup containing a kernel of corn in 16 g of sterile soil. This produces a soil concentration of 24 ppm. After 1.5 to 2 hours of drying, five 4th instar corn rootworm larvae were added to the individual cups. Mortality was measured at 3-4 days by emptying the cup onto a pan and inspecting the soil for live rootworms.

Assay [5] concerns beet armyworm (Spodoptera exiqua). The assay can be described thus: Activity against beet armyworm. It counts as in vivo. Particulars: Spodoptera, 144 h, 6 days, read-out: BAW activity (rated on live and dead larvae and size of live larvae). As to the method: as §1
BAW refers to beet armyworm
as §2
Activity against beet armyworm (Spodoptera exiqua) was evaluated as follows. The test is run using concentrations of 400 ppm and 50 ppm. A general purpose lepidoptera artificial diet was diluted to half strength with a 5% non nutritive agar. 8 mL of this diet material was dispensed into one ounce diet cups. One hour prior to treatment, 35 to 40 eggs were dispensed onto the diet surface. The cups were then sprayed with formulated material through a flat-fan nozzle. Treated cups were air dried prior to sealing with plastic caps. The cups were held for 6 days at room temperature. Activity was then rated based on the total number of live and dead larvae, and on the size of live larvae.

In assay [6] the test system is aster leafhopper (Macrosteles fascifrons). The assay can be described thus: whole plant or invertebrate. It counts as in vivo. The following applies: Macrosteles fascifrons, 24 h, read-out: ALH percent mortality. As to the method: as §1
ALH refers to aster leafhopper
as §2
Activity against aster leafhopper (Macrosteles fascifrons) was tested as follows. The test was run using concentrations of 400 ppm and 50 ppm. One ounce plastic cups containing a cotton wick was sprayed with 0.4 mL of formulated material using a flat-fan nozzle. The excess moisture was allowed to evaporate. Then five to ten carbon dioxide anesthetized adult leafhoppers were added to each cup. The cups were capped and held at room temperature for 24 hours. Percent mortality was then determined.

For assay [7], the system named is Erysiphe graminis tritici (powdery mildew). The assay can be described thus: Foliar spray fungicide test, Erysiphe graminis tritici (powdery mildew) on wheat. Particulars: Blumeria graminis, in Triticum aestivum, foliar, read-out: ERYSGT disease control, host wheat, 400 ppm (+++: 100 ppm).
Experimental: (§3) The test compounds were formulated for application by dissolving 50 mg of the compound into 1.25 ml of solvent. The solvent was prepared by mixing 50 ml of "Tween 20" (polyoxyethylene (20) sorbitan monolaurate emulsifier) with 475 ml of acetone and 475 ml of ethanol. The solvent/compound solution was diluted to 125 ml with deionized water. The resulting formulation contains 400 ppm test chemical. Lower concentrations were obtained by serial dilution with the solvent-surfactant mixture.
The formulated test compounds were applied by foliar spray. The following plant pathogens and their corresponding plants were employed.
(§4) The formulated technical compounds were sprayed on all foliar surfaces of the host plants to past run-off. Single pots of each host plant were placed on raised, revolving pedestals in a fume hood. Test solutions were sprayed on all foliar surfaces. All treatments were allowed to dry and the plants were inoculated with the appropriate pathogens within 24 hours.
(§5) The effectiveness of test compounds in controlling disease was rated using the following scale.
The test system of assay [8] is cotton aphid (Aphis gossypii). The experiment in a line: whole plant or invertebrate. Particulars: 72 h; for mortality at 50 ppm: read-out: CA activity (percent based on aphids present in plants sprayed with solvent alone), 50 ppm, squash plants, three days after treatment; for mortality at 400 ppm: read-out: CA activity (percent based on aphids present in plants sprayed with solvent alone), 400 ppm, squash plants, three days after treatment.

For assay [9], the system named is Plasmopara viticola (downy mildew). The assay can be described thus: Foliar spray fungicide test, Plasmopara viticola (downy mildew) on grape. The following applies: for pest or weed control at 400 µg/mL: Plasmopara viticola, foliar, read-out: PLASVI disease control.
Experimental: as §3
The formulated test compounds were applied by foliar spray.
as §4, §5
Assay [10] concerns Leptosphaeria nodorum (glume blotch). The experiment in a line: Foliar spray fungicide test, Leptosphaeria nodorum (glume blotch) on wheat. Particulars: Parastagonospora nodorum, in Triticum aestivum, foliar, read-out: LETPNO disease control, host wheat, 400 ppm (+++: 100 ppm).
The test system of assay [11] is Puccinia recondita tritici (leaf rust). The experiment in a line: Foliar spray fungicide test, Puccinia recondita tritici (leaf rust) on wheat. The following applies: Puccinia recondita, in Triticum aestivum, foliar, read-out: PUCCRT disease control, host wheat, 400 ppm (+++: 100 ppm).
In assay [12] the test system is tobacco budworm (Heliothis virescens). The experiment in a line: Activity against tobacco budworm. Particulars: Heliothis virescens, 144 h, 6 days, read-out: TBW activity (rated on live and dead larvae and size of live larvae). In kind it is in vivo. On the procedure: as §1
TBW refers to tobacco budworm
as §2
Activity against tobacco budworm (Heliothis virescens) was evaluated as follows. A general purpose lepidoptera artificial diet was diluted to half strength with a 5% non nutritive agar. 8 mL of this diet material was dispensed into each one ounce diet cup. One hour prior to treatment 18 to 20 eggs were dispensed onto the diet surface. The cups were then sprayed with formulated material through a flat-fan nozzle. The test was run using concentrations of 400 ppm and 50 ppm. Treated cups were air dried prior to sealing with plastic caps. The cups were held for 6 days at room temperature. Activity was then rated based on the total number of live and dead larvae, and on the size of live larvae.

Each structure is given as a SMILES string.

Consider `Fc1cccc2c(NCCc3ccc(Oc4ncc(C(F)(F)F)cc4Cl)cc3)ncnc12` [Compound 1], for which the mortality at 50 ppm turned out to be 0% in assay [1], 0% in [3], 100% in assay [6] and 0% in assay [8]. Also, the mortality at 400 ppm was 20% in assay [1], 0% in assay [3], 100% in assay [6] and 0% in [8]. Besides, the pest or weed control at 400 µg/mL in assay [2], in assay [7], in assay [9], in assay [10] and in assay [11] was 90 to 100% throughout. In addition, in assay [4], the mortality at 24 ppm is 80%. Also, the pest or weed control at 50 ppm in assay [5] and in [12] was 100% throughout. Also, the values for the pest or weed control at 400 ppm in assay [5] and in [12] were 100% and 0%, respectively.

With `Fc1cc(C(F)(F)F)cnc1Oc1ccc(CCOc2ncnc3c(F)cccc23)cc1` [Compound 5], the mortality at 400 ppm in [1], in [3], in assay [6] and in assay [8] was 100% in each case. Also, the pest or weed control at 400 µg/mL in assay [2] lay in the range of 90 to 100%; in assay [7] it was 90 to 100%; in assay [9], 90 to 100%; in [10], 0 to 19%; in assay [11], 90 to 100%. Besides, the mortality at 24 ppm in assay [4] was 100%. Moreover, the pest or weed control at 400 ppm in assay [5] and in assay [12] was 100% in each case.

With `Fc1cc(C(F)(F)F)cnc1Oc1ccc(CCNc2ncnc3c(F)cccc23)cc1` [Compound 6], the mortality at 50 ppm is 40% in assay [1], 0% in [3], 100% in assay [6] and 0% in assay [8]. Further, the mortality at 400 ppm in [1] is 20%; in assay [3] it was 0%; in assay [6], 100%; in assay [8], 0%. In addition, the pest or weed control at 400 µg/mL in assay [2], in [7], in assay [9], in assay [10] and in assay [11] was 90 to 100% each time. In addition, the mortality at 24 ppm in assay [4] worked out at 0%. Also, the pest or weed control at 50 ppm in assay [5] and in assay [12] was 100% throughout. Besides, the pest or weed control at 400 ppm in assay [5] and in assay [12] was 100% throughout.

As for `Fc1cc(C(F)(F)F)cnc1Oc1ccc(CCOc2ncnc3cccc(F)c23)cc1` [Compound 7], the mortality at 50 ppm in assay [1] was found to be 0%; in assay [3], 100%; in [6], 100%; in assay [8], 100%. Further, the mortality at 400 ppm in assay [1] was 0%; in assay [3], 100%; in assay [6] it was 80%; in assay [8] it was 100%. Further, the pest or weed control at 400 µg/mL in assay [2], in [7], in assay [9], in [10] and in [11] was 0 to 19% each time. Besides, in assay [4], the mortality at 24 ppm worked out at 0%. The pest or weed control at 50 ppm in [5] and in assay [12] was 100% throughout. The pest or weed control at 400 ppm in [5] and in assay [12] was 100% throughout.

On to `FC(F)(F)c1ccnc(Oc2ccc(CCOc3ncnc4ccccc34)cc2)c1` [Compound 13], for which the pest or weed control at 400 µg/mL in [2] is 20 to 89%; in assay [7] it was 90 to 100%; in [9], 90 to 100%; in assay [10], 90 to 100%; in assay [11] it was 90 to 100%. Further, the mortality at 400 ppm in assay [3], in assay [6] and in [8] was 100% throughout. Further, the pest or weed control at 400 ppm in [5] and in assay [12] was 100% throughout.

Regarding `Fc1cccc2c(OCCc3ccc(Oc4ncc(Cl)cc4Cl)cc3)ncnc12` [Compound 41], the pest or weed control at 400 µg/mL in assay [2] was in the range of 90 to 100%; in assay [7] it was 90 to 100%; in [10], 20 to 89%; in [11] it was 90 to 100%. In addition, the mortality at 400 ppm in [3], in [6] and in [8] was 100% in each case. Moreover, the pest or weed control at 400 ppm in [5] and in assay [12] was 100% each time. In assay [9] (host grape, foliar spray, 400 ppm (+++: 100 ppm)), the PLASVI disease control entry was “++ +”.

Consider `Fc1cccc2ncnc(OCCc3ccc(Oc4nc(Cl)c(Cl)cc4Cl)cc3)c12` [Compound 43], for which the mortality at 50 ppm in assay [1], in assay [3], in assay [6] and in [8] was 0% each time. Besides, the mortality at 400 ppm in [1], in assay [3], in [6] and in [8] was 0% in each case. Moreover, the pest or weed control at 400 µg/mL in assay [2], in assay [7], in assay [10] and in [11] was 0 to 19% in each case. Further, the mortality at 24 ppm in assay [4] was 0%. Further, the pest or weed control at 50 ppm in assay [5] and in assay [12] was 0% throughout. Also, the pest or weed control at 400 ppm in assay [5] and in [12] was 0% each time.
